Here are results for 14 compounds from ChEMBL document CHEMBL4033632, “Design, synthesis and biological activity of novel donepezil derivatives bearing N-benzyl pyridinium moiety as potent and dual binding site acetylcholinesterase inhibitors” (Eur J Med Chem, 2017).

Calls of active or inactive are those of the source. No cut-off for these calls is given here.

A word on the inhibition: it is the drop in the measured response relative to a control, in per cent. Usually IC50 stands for the concentration at which inhibition is half-maximal. What is called Papp is the rate of passage across a membrane or cell layer, normalised by area and donor concentration. Lower therefore signals slow passage.

Data set [1] deals with Amyloid-beta precursor protein (Homo sapiens) (UniProt P05067). The data set is described as follows: Inhibition of HFIP-pretreated amyloid beta (1 to 42) (unknown origin) self-induced aggregation at 20 uM incubated for 46 to 48 hrs by thioflavin-T fluorescence assay relative to control.
Amyloid-beta precursor protein (Homo sapiens), sequence (P05067 whole entry): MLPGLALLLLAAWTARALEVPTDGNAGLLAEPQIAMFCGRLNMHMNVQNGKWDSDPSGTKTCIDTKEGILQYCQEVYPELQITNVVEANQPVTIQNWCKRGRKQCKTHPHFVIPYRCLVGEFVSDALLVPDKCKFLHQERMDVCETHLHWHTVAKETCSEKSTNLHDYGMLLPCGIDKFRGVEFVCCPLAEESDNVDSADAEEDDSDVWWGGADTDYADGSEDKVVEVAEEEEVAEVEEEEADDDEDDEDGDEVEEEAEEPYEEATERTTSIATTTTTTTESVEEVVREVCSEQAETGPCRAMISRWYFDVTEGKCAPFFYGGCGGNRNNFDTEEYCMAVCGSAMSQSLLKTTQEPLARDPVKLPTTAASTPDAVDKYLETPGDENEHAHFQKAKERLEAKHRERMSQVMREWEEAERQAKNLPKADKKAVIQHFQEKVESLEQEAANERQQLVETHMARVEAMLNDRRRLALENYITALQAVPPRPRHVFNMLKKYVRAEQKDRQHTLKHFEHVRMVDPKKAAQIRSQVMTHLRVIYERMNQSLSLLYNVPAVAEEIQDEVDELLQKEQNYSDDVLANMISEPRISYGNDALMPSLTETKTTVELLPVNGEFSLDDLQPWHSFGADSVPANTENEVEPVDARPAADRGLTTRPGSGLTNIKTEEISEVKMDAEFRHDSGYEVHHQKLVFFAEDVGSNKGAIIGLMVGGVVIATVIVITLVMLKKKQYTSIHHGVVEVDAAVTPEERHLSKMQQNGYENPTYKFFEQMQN
The nature of data set [2]: Selectivity index, ratio of IC50 for equine serum BuChE to IC50 for Electric eel AChE.
For data set [3], the target named is Acetylcholinesterase (Electrophorus electricus, UniProt O42275). The data set is described as follows: Inhibition of electric eel AChE using acetylthiocholine iodide as substrate pretreated for 6 mins followed by substrate addition measured up to 180 sec by Ellman's method. Background: Ellman's reagent forms a yellow product with free thiols.
Acetylcholinesterase (Electrophorus electricus, UniProt O42275), sequence (O42275 whole entry): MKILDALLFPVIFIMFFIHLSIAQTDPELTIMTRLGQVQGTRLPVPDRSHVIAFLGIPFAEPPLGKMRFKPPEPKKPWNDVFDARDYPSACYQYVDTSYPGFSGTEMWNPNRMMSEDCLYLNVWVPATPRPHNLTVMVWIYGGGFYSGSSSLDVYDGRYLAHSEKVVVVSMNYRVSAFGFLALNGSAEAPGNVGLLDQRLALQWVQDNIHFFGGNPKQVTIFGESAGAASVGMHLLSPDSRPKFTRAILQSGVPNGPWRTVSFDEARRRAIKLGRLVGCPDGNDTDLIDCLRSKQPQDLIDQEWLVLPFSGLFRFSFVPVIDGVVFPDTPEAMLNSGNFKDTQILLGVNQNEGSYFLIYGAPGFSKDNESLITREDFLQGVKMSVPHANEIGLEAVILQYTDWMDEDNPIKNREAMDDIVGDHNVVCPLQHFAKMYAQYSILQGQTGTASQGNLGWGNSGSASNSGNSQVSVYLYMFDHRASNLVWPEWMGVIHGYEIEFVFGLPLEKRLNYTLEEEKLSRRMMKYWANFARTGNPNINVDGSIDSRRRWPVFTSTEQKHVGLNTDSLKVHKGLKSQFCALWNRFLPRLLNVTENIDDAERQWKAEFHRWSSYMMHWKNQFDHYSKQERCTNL
Data set [4] in a line: Antioxidant activity assessed as trolox equivalents of DPPH radical scavenging activity at 25 uM after 30 mins by UV-vis spectrophotometry. The class given is functional.
For data set [5], the target named is Acetylcholinesterase (Homo sapiens, UniProt P22303). Kind of data set: Inhibition of human erythrocyte AChE using acetylthiocholine iodide as substrate pretreated for 6 mins followed by substrate addition measured up to 180 sec by Ellman's method.
Acetylcholinesterase (Homo sapiens, UniProt P22303), sequence (P22303 whole entry, the tested form may be a part): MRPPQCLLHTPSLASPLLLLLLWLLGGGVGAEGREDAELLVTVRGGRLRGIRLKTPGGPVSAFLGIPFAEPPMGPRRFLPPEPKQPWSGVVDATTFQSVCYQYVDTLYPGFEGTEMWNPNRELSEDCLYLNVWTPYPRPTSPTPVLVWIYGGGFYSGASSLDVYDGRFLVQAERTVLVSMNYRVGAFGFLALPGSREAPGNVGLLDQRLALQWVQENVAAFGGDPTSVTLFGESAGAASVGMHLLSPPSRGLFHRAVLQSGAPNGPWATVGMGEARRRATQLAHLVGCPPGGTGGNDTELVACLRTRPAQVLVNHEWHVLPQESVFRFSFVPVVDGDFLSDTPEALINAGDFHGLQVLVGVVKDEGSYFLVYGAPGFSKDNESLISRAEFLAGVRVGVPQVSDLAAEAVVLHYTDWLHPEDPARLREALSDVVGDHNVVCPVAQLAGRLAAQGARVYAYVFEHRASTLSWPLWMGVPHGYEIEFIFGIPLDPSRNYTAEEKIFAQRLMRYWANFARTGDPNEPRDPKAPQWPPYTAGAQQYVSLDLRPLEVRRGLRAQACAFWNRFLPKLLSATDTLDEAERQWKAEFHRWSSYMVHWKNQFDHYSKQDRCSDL
For data set [6], the system named is PC-12. Kind of data set: Neuroprotective activity against amyloid beta (1 to 42 residues) induced cell death in rat PC12 cells assessed as cell viability at 1.56 uM preincubated for 2 hrs followed by amyloid beta (1 to 42 residues) addition measured after 24 hrs by MTT assay (reference value: 50.5%). The class given is functional. The settings on record: read-out: Activity. Background: Formazan colour is commonly taken as a measure of viable cells.

Data set [7] has as its system Mus musculus. The data set is described as follows: Toxicity in Kunming mouse assessed as body weight loss up to 2000 mg/kg, po measured up to 14 days post dose. The class given is organism-based. The settings on record: in vivo, 336 h.
The subject of data set [8] is PC-12. Kind of data set: Neuroprotective activity against H2O2-induced oxidative damage in rat PC12 cells assessed as increase in cell viability at 6.25 uM after 24 hrs by MTT assay. The class given is functional, cell-based.
For data set [9], the system named is PC-12. Kind of data set: Neuroprotective activity against H2O2-induced oxidative damage in rat PC12 cells assessed as cell viability at 12.5 uM after 24 hrs by MTT assay relative to control. The following applies: PC-12, 24 h, read-out: Activity. The class given is functional.
For data set [10], the target named is Acetylcholinesterase (Electrophorus electricus) (UniProt O42275). The data set is described as follows: Mixed-type inhibition of electric eel AChE at 1.25 to 5 nM using varying levels of acetylthiocholine iodide substrate by Lineweaver-Burk plot analysis.
Acetylcholinesterase (Electrophorus electricus), sequence (O42275 24-633 limits assumed): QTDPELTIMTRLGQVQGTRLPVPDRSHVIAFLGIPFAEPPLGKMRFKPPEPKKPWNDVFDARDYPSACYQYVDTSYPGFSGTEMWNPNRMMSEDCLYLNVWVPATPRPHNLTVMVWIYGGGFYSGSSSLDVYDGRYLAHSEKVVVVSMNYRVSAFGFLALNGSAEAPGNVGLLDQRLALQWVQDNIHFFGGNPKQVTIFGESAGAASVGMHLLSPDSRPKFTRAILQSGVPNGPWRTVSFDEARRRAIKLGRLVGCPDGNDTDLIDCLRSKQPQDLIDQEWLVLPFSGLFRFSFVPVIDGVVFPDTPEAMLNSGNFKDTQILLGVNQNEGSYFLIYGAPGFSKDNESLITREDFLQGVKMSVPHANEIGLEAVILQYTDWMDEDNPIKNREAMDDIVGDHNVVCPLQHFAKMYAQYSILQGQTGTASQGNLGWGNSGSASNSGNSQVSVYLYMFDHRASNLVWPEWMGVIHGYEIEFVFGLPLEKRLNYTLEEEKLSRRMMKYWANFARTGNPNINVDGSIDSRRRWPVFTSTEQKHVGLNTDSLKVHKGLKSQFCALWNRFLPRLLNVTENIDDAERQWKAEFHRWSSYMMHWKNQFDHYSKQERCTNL
Data set [11] concerns PC-12. Kind of data set: Neuroprotective activity against amyloid beta (1 to 42 residues) induced cell death in rat PC12 cells assessed as cell viability at 12.5 uM preincubated for 2 hrs followed by amyloid beta (1 to 42 residues) addition measured after 24 hrs by MTT assay (reference value: 50.5%). The class given is functional. The settings on record: read-out: Activity.

For data set [12], the system named is PC-12. The data set is described as follows: Neuroprotective activity against amyloid beta (1 to 42 residues) induced cell death in rat PC12 cells assessed as cell viability at 6.25 uM preincubated for 2 hrs followed by amyloid beta (1 to 42 residues) addition measured after 24 hrs by MTT assay (reference value: 50.5%). The class given is functional. The settings on record: read-out: Activity.

Data set [13] has as its target Amyloid-beta precursor protein (Homo sapiens) (UniProt P05067). Kind of data set: Inhibition of amyloid beta (1 to 42) (unknown origin) self-induced aggregation assessed as reduction in amyloid beta fibrils by transmission electron microscopic analysis.
In data set [14] the test system is PC-12. The data set is described as follows: Cytotoxicity against rat PC12 cells assessed as effect on cell viability at 6 to 100 uM after 24 hrs by MTT assay. The class given is cell-based. The settings on record: pc-12, 24 h.
Data set [15] has as its system Mus musculus. Kind of data set: Toxicity in Kunming mouse assessed as mortality up to 2000 mg/kg, po measured up to 14 days post dose. The class given is organism-based. The settings on record: in vivo, 336 h.
Data set [16] relates to Mus musculus. Kind of data set: Toxicity in Kunming mouse assessed as effect on food consumption up to 2000 mg/kg, po measured up to 14 days post dose. The class given is organism-based. The settings on record: in vivo, 336 h.
A short description of a further data set: physchem. The following applies: PAMPA. (PAMPA measures passive passage across an artificial lipid membrane.)
Data set [17] has as its system PC-12. The data set is described as follows: Neuroprotective activity against amyloid beta (1 to 42 residues) induced cell death in rat PC12 cells assessed as cell viability at 3.12 uM preincubated for 2 hrs followed by amyloid beta (1 to 42 residues) addition measured after 24 hrs by MTT assay (reference value: 50.5%). The following applies: read-out: Activity. The class given is functional.

For data set [18], the system named is Mus musculus. The data set is described as follows: Toxicity in Kunming mouse assessed as effect on water consumption up to 2000 mg/kg, po measured up to 14 days post dose. The settings on record: in vivo, 336 h. The class given is organism-based.
The next data set concerns the target Cholinesterase (Equus caballus, UniProt P81908). Kind of data set: Inhibition of equine serum BuChE using s-butyrylthiocholine iodide as substrate preincubated for 6 mins followed by substrate addition measured up to 180 sec by Ellman's method.

Cholinesterase, sequence (P81908 whole entry): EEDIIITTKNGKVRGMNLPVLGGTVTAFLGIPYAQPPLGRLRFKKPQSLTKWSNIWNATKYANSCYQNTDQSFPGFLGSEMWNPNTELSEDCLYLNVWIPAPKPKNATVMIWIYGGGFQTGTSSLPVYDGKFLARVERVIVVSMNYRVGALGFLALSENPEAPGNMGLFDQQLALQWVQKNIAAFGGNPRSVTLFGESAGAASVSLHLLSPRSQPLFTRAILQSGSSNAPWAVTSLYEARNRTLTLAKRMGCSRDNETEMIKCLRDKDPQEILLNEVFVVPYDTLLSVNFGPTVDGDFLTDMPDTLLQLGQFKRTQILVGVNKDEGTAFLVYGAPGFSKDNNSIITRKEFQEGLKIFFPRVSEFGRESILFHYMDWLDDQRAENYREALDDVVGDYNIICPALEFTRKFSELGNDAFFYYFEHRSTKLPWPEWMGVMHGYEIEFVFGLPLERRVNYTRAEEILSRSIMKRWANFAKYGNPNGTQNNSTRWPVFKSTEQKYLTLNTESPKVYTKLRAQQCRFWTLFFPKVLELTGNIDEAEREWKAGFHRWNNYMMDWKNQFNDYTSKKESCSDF
Description for physchem: Permeability of the compound at 200 uL after 16 hrs by PAMPA-BBB assay

For the compound `COc1cc2c(cc1OC)C(=O)/C(=C/c1cc[n+](Cc3ccc(Br)cc3)cc1)C2`, the inhibition in data set [1] came to 50.2%. Moreover, the Ratio IC50 in data set [2] was greater than 129. The results for the IC50 on Acetylcholinesterase [3] and on Acetylcholinesterase [5] were 77.3 nM and 69.7 nM, respectively. Besides, the Activity in [4] came out at 0.38 equiv.

`COc1cc2c(cc1OC)C(=O)/C(=C/c1cc[n+](Cc3ccc([N+](=O)[O-])cc3)cc1)C2`: the inhibition in data set [1] amounted to 47.2%. Besides, the Ratio IC50 in data set [2] was greater than 130. For the same compound, the IC50 at Acetylcholinesterase [3] came to 74.6 nM; at Acetylcholinesterase [5], 59.5 nM. The Activity in data set [4] came out at 0.49 equiv.

`COc1cc2c(cc1OC)C(=O)/C(=C/c1cc[n+](Cc3cccc(C)c3)cc1)C2`: the inhibition in data set [1] amounted to 42.6%. Further, the Ratio IC50 in data set [2] was greater than 2380. In addition, the IC50 at Acetylcholinesterase [3] came to 4.2 nM; on Acetylcholinesterase [5], 4 nM. In addition, the Activity in data set [4] was found to be 0.47 equiv.

As to `COc1cc2c(cc1OC)C(=O)C(CC1CCN(Cc3ccccc3)CC1)C2` (stereo not given), the Activity in data set [4] amounted to 0.63 equiv.

As to `COc1cc2c(cc1OC)C(=O)/C(=C/c1cc[n+](Cc3cccc(F)c3)cc1)C2`, the inhibition in [1] came to 43.5%. In data set [2], the Ratio IC50 is greater than 2940. Moreover, the IC50 is 3.4 nM on Acetylcholinesterase [3] and 2.9 nM on Acetylcholinesterase [5]. Also, the Activity in data set [4] stood at 0.47 equiv.

In the case of `COc1cc2c(cc1OC)C(=O)/C(=C/c1cc[n+](Cc3ccccc3Br)cc1)C2`, the inhibition in data set [1] stood at 56.7%. In addition, in [2], the Ratio IC50 is greater than 3450. Moreover, the IC50 came out at 2.9 nM at Acetylcholinesterase [3] and 3.8 nM on Acetylcholinesterase [5]. Besides, in data set [4], the Activity stood at 0.37 equiv.

With `COc1cc2c(cc1OC)C(=O)/C(=C/c1cc[n+](Cc3cccc([N+](=O)[O-])c3)cc1)C2`, the inhibition in data set [1] is 50.8%. Also, the Ratio IC50 in data set [2] was greater than 1690. Besides, the IC50 came out at 5.9 nM at Acetylcholinesterase [3] and 3.6 nM at Acetylcholinesterase [5]. Besides, the Activity in [4] came to 0.33 equiv.

Regarding `COc1cc2c(cc1OC)C(=O)/C(=C/c1cc[n+](Cc3ccccc3C)cc1)C2`, the inhibition in data set [1] turned out to be 38.7%. In addition, the Ratio IC50 in data set [2] is greater than 1960. The IC50 on Acetylcholinesterase [3] turned out to be 5.1 nM; on Acetylcholinesterase [5] it was 5.8 nM. Also, the Activity in data set [4] was 0.41 equiv.

In the case of `COc1cc2c(cc1OC)C(=O)/C(=C/c1cc[n+](Cc3ccc(C)cc3)cc1)C2`, the inhibition in data set [1] is 49.9%. For the same compound, the Ratio IC50 in data set [2] was greater than 391. Moreover, the results for the IC50 on Acetylcholinesterase [3] and on Acetylcholinesterase [5] were 25.6 nM and 18.6 nM, respectively. The Activity in data set [4] came out at 0.39 equiv.

On to `COc1cc2c(cc1OC)C(=O)/C(=C/c1cc[n+](Cc3ccccc3)cc1)C2`, for which, in data set [1], the inhibition is 45.6%. Also, the Ratio IC50 in data set [2] is greater than 3450. Also, the IC50 at Acetylcholinesterase [3] stood at 2.9 nM; on Acetylcholinesterase [5], 3.4 nM. Moreover, in data set [4], the Activity was 0.51 equiv.

Take `COc1cc2c(cc1OC)C(=O)/C(=C/c1cc[n+](Cc3cccc(Br)c3)cc1)C2`: in data set [1], the inhibition amounted to 53.4%. In data set [2], the Ratio IC50 is greater than 2270. Also, the results for the IC50 on Acetylcholinesterase [3] and at Acetylcholinesterase [5] were 4.4 nM and 5.2 nM, respectively. Further, the Activity in data set [4] turned out to be 0.32 equiv.

In the case of `COc1cc2c(cc1OC)C(=O)/C(=C/c1cc[n+](Cc3ccccc3F)cc1)C2.[Br-]`, in the data set with PC-12 [6], the viability at 1.56 µM is 53.7%. Besides, the Activity result with Mus musculus [7] was “Non-Toxic”; in the data set with PC-12 [14] it was “Non-Toxic”; in the data set on Mus musculus [15], “Non-Toxic”; with Mus musculus [16] it was “Non-Toxic”; in data set [4] it was 0.54 equiv; with Mus musculus [18], “Non-Toxic”. Besides, the result in the data set with PC-12 [8] was Active. Also, the values for the viability at 12.5 µM in the data set with PC-12 [9] and with PC-12 [11] were 73.2% and 76.3%, respectively. For the same compound, the inhibition result in data set [10] and in [13] was “Active” throughout. The inhibition in [1] came out at 53.7%. Also, the viability at 6.25 µM with PC-12 [12] was determined as 72.3%. The IC50 on Acetylcholinesterase [5] stood at 0.8 nM. In the data set “physchem”, this compound had an apparent permeability coefficient (Papp) at 16 h of 4.97 ×10⁻⁶ cm/s. For the same compound, in the data set with PC-12 [17], the viability at 3.12 µM turned out to be 66.5%.

`C[C@]12CC[C@@H]3c4ccc(O)cc4CC[C@H]3[C@@H]1CC[C@@H]2O` [ESTRADIOL] showed an apparent permeability (Papp) at 16 h in “physchem” of 11.3 ×10⁻⁶ cm/s.

Turning to `COc1cc2c(cc1OC)C(=O)/C(=C/c1cc[n+](Cc3ccc(F)cc3)cc1)C2`, the inhibition in data set [1] amounted to 47.6%. For the same compound, the Ratio IC50 in data set [2] turned out to be 1170. Moreover, the results for the half-inhibitory concentration (IC50) on Acetylcholinesterase [3], on Acetylcholinesterase [5] and at Cholinesterase were 4.6 nM, 4.1 nM and 5400 nM, respectively. The Activity in [4] was determined as 0.51 equiv.
